Reference: patent US20050180954A1, “Drug for treating bone disorders” (priority 1995, published 2005)

Key:
Assay type in all cases: cell-based, mouse
MC3T3-E1 cells [1] = experiment: Quantification of calcium in calcified foci of MC3T3-E1; conditions: MC3T3-E1, Day 14
Protocol: MC3T3-E1 cells were placed in each well in 24-well plates in an amount of 50,000 cells/well and cultured to confluency. The medium was removed and fresh α-MEM containing 10% JCS, 50 μg/ml of L-ascorbic acid and 10 mM β-glycerophosphate was added in an amount of 0.9 ml/well, followed by adding 0.1 ml/well of medium containing varying concentration of IFN. The medium was replaced with IFN-free medium every 4 days. On Day 14, the medium was removed and the cells were lightly washed with Hank's solution. Anhydrous ethanol was added in an amount of 1 ml/well and fixation was carried out at room temperature for 15 minuets. Then the anhydrous ethanol was replaced with fresh anhydrous ethanol in an amount of 1 ml/well and 5 minutes later, each well was dried in the air. Then 1N hydrochloric acid was added in an amount of 1 ml/well and extraction was carried out at room temperature for 30 minutes. The total contents of each well were transferred to an Eppendorf tube and centrifuged at 1800×g at 4° C. for 10 minutes The amount of calcium in the supernatant was measured by Calcium C Test Wako and the amount of inorganic phosphorus in the supernatant was measured by Phospha B Test Wako. […] The IC50 value was as low as about 10 units/ml (FIG. 5).

MC3T3-E1 cells [2] = experiment: Mineralization of murine osteoblasts, Von Kossa stain (in vitro single administration); conditions: Day 14
Protocol: As the parameters for evaluation of differentiation ability, alkaline phosphatase (ALPase) and mineralization were employed. Detection of alkaline phosphatase which is a marker of differentiation of osteoblasts was carried out on Day 8 from the beginning of the culturing by staining method. Evaluation of mineralization was carried out as follows. That is, MC3T3-E1 cells were placed in each well of 24-well plates in an amount of 50,000 cells/ml (10 times in the case of anti-cell test in Example 3). On Day 4, after confirming that the cells sufficiently reached confluency, the medium was discarded and fresh α-MEM containing 10% JCS, 50 μg/ml of L-ascorbic acid and 10 mM β-glycerophosphate was added in an amount of 0.9 ml/well, followed by adding medium containing varying concentration of IFN. Four days later, the medium was replaced with IFN-free medium, and the medium was replaced with IFN-free medium every 4 days. On Day 14, Von Kossa stain was performed to visualize the calcified foci. Expression of alkaline phosphatase activity which is a differentiation marker is an indispensable step to the subsequent mineralization.

[3] = test system: osteoclast like cells from bone marrow cells of mice of C 57 BL/6 strain; experiment: Formation of osteoclast like cells from bone marrow cells of mice of C 57 BL/6 strain; conditions: Example 2, C 57 BL/6 strain bone marrow cells
Protocol: (§1) The number of viable bone marrow cells was counted using tripam blue dye exclusion test and the bone marrow cells were diluted with α-MEM containing 10% JCS, 10^−8M Vit D3, 10^−7 M dexamethasone to a population density of 1.5×10^6 cells/ml, followed by placing the resulting suspension in each well in 24-well plates in an amount of 0.45 ml/well. To each well, 50 μl of the medium containing varying concentration of IFN was added to make the volume to 0.5 ml/well and culturing was begun. At every three days, 0.4 ml of the culture medium was removed from each well and 0.4 ml of fresh medium (the above-mentioned medium containing the respective concentration of IFN) was added. On Day 8 from the beginning of the culturing, the medium was removed and the cells were fixed with mixed solution of ethyl alcohol and diethyl ether (1:1) and the cells were stained with tartrate resistant acid phosphatase (TRAP), followed by counting TRAP positive multinuclear cells with a phase contrast microscope. […] The inhibition effect of IFNγ was stronger than that of IFNβ. That is, the inhibition concentration IC50 of IFNγ was not more than 0.1 units/ml, and that of IFNβ was 0.2 units/ml.
In place of mice of ddy strain, male mice of C 57 BL/6 of 7 weeks old were used. The mice were exanguinated to death under ether anesthesia and the femur and the tibia of hind legs were collected from each mouse. The connective tissues on the surfaces of the bones were carefully removed, and both ends of each bone were cut off with scissors. The bone marrow cells were suspended in α-MEM containing 10% JCS and the suspension was flushed out through a 25 G needle attached to a syringe to collect the suspension in a centrifugal tube. The collected suspension was washed by centrifugation in the same medium at 2000 rpm at 4° C. for 5 minutes. The precipitated cells were dispersed in the above-mentioned medium and the washing by centrifugation was repeated twice. Formation of osteoclast like cells was measured by the same method as in Example 1.

[4] = test system: osteoclast like cells from bone marrow cells of mice of ddy strain; experiment: Formation of osteoclast like cells from bone marrow cells of mice of ddy strain
Protocol: Bone marrow cells were prepared in accordance with the method by Takahashi et al (Takahashi, N. et al., Endocrinology, 122, 1373, 1988). Male mice of ddy strain of 7 weeks old were exanguinated to death under ether anesthesia and the femur and the tibia of hind legs were collected from each mouse. The connective tissues on the surfaces of the bones were carefully removed, and both ends of each bone were cut off with scissors. The bone marrow cells were suspended in α-Minimum Essential Medium (α-MEM, Nissui Pharmaceuticals Co.) containing 10% pre-colostrum new born calf serum (Mitsubishi Chemical, hereinafter referred to as “JCS” for short) and the suspension was flushed out through a 25 G needle attached to a syringe to collect the suspension in a centrifugal tube. The collected suspension was washed by centrifugation in the same medium at 2000 rpm at 4° C. for 5 minutes. The precipitated cells were dispersed in the above-mentioned medium and the washing by centrifugation was repeated twice, thereby preparing bone marrow cells. Murine IFN-α (hereinafter referred to as “MuIFNα” for short), Lot. B13010, 106 units/ml/vial (Calbiochem-Novabiochem International, San Diego, Calif.), murine IFN-β (hereinafter referred to as “MuIFNβ” for short), Lot M-0034, 10 units/ml/vial (Toray Industries, Inc.) and murine IFNγ (hereinafter referred to as “MuIFNγ” for short), Lot 254F3, 2.06×10^6 units/ml (Genentech, Calif.) were respectively dissolved in 10% JCS-containing α-MEM (Nissui Pharmaceuticals Co.) to the desired concentrations. Active vitamin D3 ([…], Wako Pure Chemical Industries, Ltd., hereinafter referred to as “Vit D3” for short) was dissolved in argon-saturated ethanol, and the obtained solution was diluted so as to attain the final ethanol concentration of 0.1% in all of the culture systems.
as §1
The effects of the three murine IFNs, that is, MuIFNβ, γ and α in terms of abilities to inhibit formation of osteoclast like cells from bone marrow cells in mice of ddy strain were compared. The test was carried out as in Example 1. All of the murine IFNs inhibited the formation of osteoclast like cells, and the effect was strong in the order of γ, β and α. […] Thus, the activity of IFNα to inhibit formation of osteoclasts was about 1/20 of that of IFNβ and about not more than 1/100 of that of IFNγ.

MC3T3-E1 cells [5] = experiment: Proliferation of murine osteoblastic cells MC3T3-E1 (in vitro single administration)
Protocol: Murine osteoblast like cells MC3T3-E1 originated from C 57 BL/6 mouse (Kodama et al., Jap. J. Oral Biol., 23, 899, 1982) were washed with PBS(−) and the cells were dissociated by incubation in PBS(−) containing 0.1% pronase (Actinase E, Kaken Pharmaceuticals Co.), followed by dispersing the cells in α-MEM containing 10% JCS and 50 μg/ml of L-ascorbic acid (ASA). The ability to promote proliferation of cells was evaluated as follows. That is, MC3T3-E1 cells were placed in each well in 24-well plates (Corning) in an amount of 5000 cells/well. Then each IFN dilution was added to each well in an amount of 0.1 ml/well, and the culturing was begun. On Day 2, the medium was removed and the each IFN dilution was added in an amount of 0.5 ml/well (total amount of liquid: 0.5 ml/well). On Day 6, the medium was removed and the cells were washed with PBS(−) and a mixed enzyme solution of 0.1% pronase/0.1% collagenase was added to each well in an amount of 200 μl/well, followed by allowing to react at 37° C. for 15 minutes. Then α-MEM containing 10% fetal calf serum (Gibco, hereinafter referred to as “FCS” for short) was added in an amount of 300 μl/well to disperse the cells therein and the number of the cells was counted with a Coulter counter.

IC50 value of inhibition of calcium deposition (MC3T3-E1 cells [1]): about 10 units/ml
IC50 value of inhibition of mineralization (MC3T3-E1 cells [2]; Von Kossa): 3-4 units/ml
IC50 of formation inhibition of osteoclast like cells ([3]; Day 8): 1.5 units/ml
inhibition concentration IC50 of formation of osteoclast like cells ([4]; Example 1, Vit D3 + dexamethasone, Day 8, TRAP positive multinuclear cells): not more than 0.1 units/ml
IC50 of inhibition of formation of osteoclast like cells ([4]; Example 8 comparison of three murine IFNs): not more than 0.1 units/ml
Substance: MuIFNγ: murine interferon γ, standard product Lot 254F3, provided by Genentech
calcium deposition smaller than the control (MC3T3-E1 cells [1]; 1000 units/ml): 70%
concentration at which the inhibition effect on mineralization was expressed (MC3T3-E1 cells [2]): 10 units/ml
influence on mineralization (calcified foci, Von Kossa stain) (MC3T3-E1 cells [2]): strong and dose dependent inhibition action on mineralization
inhibition of formation of osteoclast like cells [3]: strongly inhibited formation of osteoclast like cells
inhibition of formation of osteoclast like cells ([4]; Example 1, Day 8, TRAP positive multinuclear cells): strongly inhibited formation of osteoclast like cells
inhibition of proliferation of MC3T3-E1 cells (MC3T3-E1 cells [5]; 10,000 units/ml, cell count on Day 6): about 30%
dose from which slight inhibition of proliferation was observed (MC3T3-E1 cells [5]; MC3T3-E1, Day 6): 1 unit/ml
